Several values for one entry are separate records, joined by “and”; a condition that tells them apart may be missing. Identical values can stand only once.

The target of experiment [1] is T1, FLAG-Avi-DDB1 and His-CDK12KD/His-CCNKΔC (WT) (Homo sapiens, UniProt Q9NYV4).
T1 construct: Human CDK12KD (residues 715–1052); made in house; host or cells: Sf9 or High Five (CDK12KD/CCNKΔC, co-infected with yeast CAK1); 293F with BirA (FLAG-Avi-DDB1)
Put plainly: AlphaScreen assay, WT. The conditions noted are these: for AlphaScreen: raw signal. Format: binding. The method, then: Biotinylated FLAG-Avi-DDB1 (3 µM) and 6xHis-CDK12KD/6xHis-CCNKΔC (WT or G731E/R mutants) (3 µM) were mixed in an assay buffer (50 mM HEPES, pH7.5, 300 mM NaCl, 0.5 mM TCEP, 0.1% NP-40, 0.1% BSA) and a serial dilution of HQ461.The protein-compound mix was transferred to 384-well plates (Corning, Corning, USA); 15 μL per well. After a 1 hr room temperature incubation, 10 µL of nickel chelate (Ni-NTA) acceptor beads (PerkinElmer, Waltham, USA, Waltham, USA, 6760619C) (1:100 diluted with assay buffer) was added per well. After incubation in the dark for 1 hr at room temperature, 10 μL of streptavidin donor beads (PerkinElmer, Waltham, USA, 6760619C) (1:100 diluted in assay buffer) was added per well. After another 1 hr incubation, AlphaScreen signal was measured on the EnVision multimode plate reader (PerkinElmer, Waltham, USA). For THZ531 competition, FLAG-Avi-DDB1, 6xHis-CDK12KD/6xHis-CCNKΔC mix was preincubated with 5 μM of THZ531 for 30 min on ice followed by the procedures described above.

Experiment [2] has as its target T2, 3xFLAG-CDK12/CCNK and DDB1 (Homo sapiens, UniProt Q9NYV4).
T2 construct: A549 3xFLAG-CDK12 knock-in cells were detached from plates by scraping; endogenous in cells; host or cells: A549 3xFLAG-CDK12 knock-in cells (lysate)
The experiment in a line: Co-immunoprecipitation of CCNK and DDB1 with 3xFLAG-CDK12 complex. The format is binding. The following applies: A549 3xFLAG-CDK12 knock-in lysates. How it is done: Anti-FLAG M2 antibody (Sigma-Aldrich, MO, USA F3165) was coupled to magnetic epoxy beads (Beijing Yunci Technology Co., Beijing, China) at the ratio of 10 μg of anti-FLAG antibody/mg of beads in the presence of 1 M ammonium acetate and 0.1 M sodium phosphate, pH 7.4 at 37°C overnight. A549 3xFLAG-CDK12 knock-in cells were detached from plates by scraping, washed in DPBS, and then frozen in liquid nitrogen. Frozen cells were pulverized using a mixer mill MM 400 (Retsch, Haan, Germany) with two rounds of 1 min ball milling at 30 Hz. Per experiment, 25 mg of grinded cell powder was solubilized with 250 µL of IP buffer (50 mM HEPES, pH 7.4, 300 mM NaCl, 0.1% Tween-20) supplemented with 1x cOmplete, Mini, EDTA-free protease inhibitor cocktail (Roche, Bazel, Switzerland). The resulting lysates were centrifuged at 15,000 g for 10 min at 4°C. Clarified lysates were supplemented with HQ461 or DMSO and incubated at 4°C for 30 min. Afterwards, 0.2 mg of anti-FLAG-conjugated magnetic beads were mixed with clarified lysates for 15 min on a rotating platform at 4°C, followed by three washes with IP buffer supplemented with HQ461 or DMSO. Bound proteins were eluted from magnetic beads with 1 mg/ml of 3 × FLAG peptide (Sigma-Aldrich, MO, USA F4799) with agitation at 4°C for 30 min. Eluted proteins were subjected to SDS-PAGE and western blotting with anti-FLAG-HRP, anti-CCNK, and anti-DDB1. […]

T1 sequence (Q9NYV4 715-1052 limits assumed, stated change not applied): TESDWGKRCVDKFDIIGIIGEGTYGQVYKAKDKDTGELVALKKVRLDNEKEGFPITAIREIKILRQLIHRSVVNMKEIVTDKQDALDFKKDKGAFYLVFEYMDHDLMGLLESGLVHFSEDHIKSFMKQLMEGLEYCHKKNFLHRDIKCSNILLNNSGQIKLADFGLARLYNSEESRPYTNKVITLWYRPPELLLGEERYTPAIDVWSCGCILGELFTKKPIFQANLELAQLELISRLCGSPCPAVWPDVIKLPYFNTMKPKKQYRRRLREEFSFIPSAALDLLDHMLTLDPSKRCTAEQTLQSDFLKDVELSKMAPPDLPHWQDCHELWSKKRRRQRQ
T1 sequence (O75909 11-267 partner limits assumed): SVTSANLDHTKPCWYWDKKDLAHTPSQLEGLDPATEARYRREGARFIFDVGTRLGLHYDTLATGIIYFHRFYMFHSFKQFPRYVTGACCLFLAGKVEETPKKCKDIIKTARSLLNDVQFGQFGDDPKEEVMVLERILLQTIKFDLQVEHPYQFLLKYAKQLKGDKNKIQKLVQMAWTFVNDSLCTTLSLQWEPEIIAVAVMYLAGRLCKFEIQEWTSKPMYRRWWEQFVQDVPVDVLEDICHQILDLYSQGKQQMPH
T1 sequence (Q16531 whole entry partner, the tested form may be a part): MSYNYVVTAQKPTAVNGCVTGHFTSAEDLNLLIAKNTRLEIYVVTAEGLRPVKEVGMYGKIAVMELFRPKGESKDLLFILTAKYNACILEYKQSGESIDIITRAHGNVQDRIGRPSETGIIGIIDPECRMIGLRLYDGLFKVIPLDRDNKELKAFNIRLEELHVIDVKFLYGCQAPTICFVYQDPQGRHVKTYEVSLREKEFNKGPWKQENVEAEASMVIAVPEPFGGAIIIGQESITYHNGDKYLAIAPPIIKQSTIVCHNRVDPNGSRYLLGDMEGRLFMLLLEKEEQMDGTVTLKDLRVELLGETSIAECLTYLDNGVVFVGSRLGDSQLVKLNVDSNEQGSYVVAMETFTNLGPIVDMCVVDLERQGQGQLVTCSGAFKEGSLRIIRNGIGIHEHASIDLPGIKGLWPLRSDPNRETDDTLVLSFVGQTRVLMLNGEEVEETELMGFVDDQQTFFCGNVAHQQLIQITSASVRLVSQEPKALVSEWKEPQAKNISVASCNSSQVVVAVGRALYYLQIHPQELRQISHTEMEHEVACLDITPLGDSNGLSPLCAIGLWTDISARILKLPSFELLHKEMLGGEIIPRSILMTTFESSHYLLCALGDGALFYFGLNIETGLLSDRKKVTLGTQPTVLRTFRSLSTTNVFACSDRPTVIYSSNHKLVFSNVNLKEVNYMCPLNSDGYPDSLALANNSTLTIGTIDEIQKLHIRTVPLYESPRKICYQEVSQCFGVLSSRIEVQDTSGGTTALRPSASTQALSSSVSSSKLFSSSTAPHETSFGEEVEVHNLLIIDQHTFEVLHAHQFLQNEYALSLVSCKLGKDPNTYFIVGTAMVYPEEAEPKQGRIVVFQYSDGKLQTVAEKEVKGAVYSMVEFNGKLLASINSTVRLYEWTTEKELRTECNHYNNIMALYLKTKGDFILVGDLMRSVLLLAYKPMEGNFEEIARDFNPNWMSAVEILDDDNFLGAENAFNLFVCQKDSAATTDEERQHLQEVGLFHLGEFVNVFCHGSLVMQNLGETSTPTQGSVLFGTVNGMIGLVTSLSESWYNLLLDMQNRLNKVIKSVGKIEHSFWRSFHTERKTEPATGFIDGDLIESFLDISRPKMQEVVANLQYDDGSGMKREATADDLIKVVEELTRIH
T2 sequence (Q9NYV4 whole entry): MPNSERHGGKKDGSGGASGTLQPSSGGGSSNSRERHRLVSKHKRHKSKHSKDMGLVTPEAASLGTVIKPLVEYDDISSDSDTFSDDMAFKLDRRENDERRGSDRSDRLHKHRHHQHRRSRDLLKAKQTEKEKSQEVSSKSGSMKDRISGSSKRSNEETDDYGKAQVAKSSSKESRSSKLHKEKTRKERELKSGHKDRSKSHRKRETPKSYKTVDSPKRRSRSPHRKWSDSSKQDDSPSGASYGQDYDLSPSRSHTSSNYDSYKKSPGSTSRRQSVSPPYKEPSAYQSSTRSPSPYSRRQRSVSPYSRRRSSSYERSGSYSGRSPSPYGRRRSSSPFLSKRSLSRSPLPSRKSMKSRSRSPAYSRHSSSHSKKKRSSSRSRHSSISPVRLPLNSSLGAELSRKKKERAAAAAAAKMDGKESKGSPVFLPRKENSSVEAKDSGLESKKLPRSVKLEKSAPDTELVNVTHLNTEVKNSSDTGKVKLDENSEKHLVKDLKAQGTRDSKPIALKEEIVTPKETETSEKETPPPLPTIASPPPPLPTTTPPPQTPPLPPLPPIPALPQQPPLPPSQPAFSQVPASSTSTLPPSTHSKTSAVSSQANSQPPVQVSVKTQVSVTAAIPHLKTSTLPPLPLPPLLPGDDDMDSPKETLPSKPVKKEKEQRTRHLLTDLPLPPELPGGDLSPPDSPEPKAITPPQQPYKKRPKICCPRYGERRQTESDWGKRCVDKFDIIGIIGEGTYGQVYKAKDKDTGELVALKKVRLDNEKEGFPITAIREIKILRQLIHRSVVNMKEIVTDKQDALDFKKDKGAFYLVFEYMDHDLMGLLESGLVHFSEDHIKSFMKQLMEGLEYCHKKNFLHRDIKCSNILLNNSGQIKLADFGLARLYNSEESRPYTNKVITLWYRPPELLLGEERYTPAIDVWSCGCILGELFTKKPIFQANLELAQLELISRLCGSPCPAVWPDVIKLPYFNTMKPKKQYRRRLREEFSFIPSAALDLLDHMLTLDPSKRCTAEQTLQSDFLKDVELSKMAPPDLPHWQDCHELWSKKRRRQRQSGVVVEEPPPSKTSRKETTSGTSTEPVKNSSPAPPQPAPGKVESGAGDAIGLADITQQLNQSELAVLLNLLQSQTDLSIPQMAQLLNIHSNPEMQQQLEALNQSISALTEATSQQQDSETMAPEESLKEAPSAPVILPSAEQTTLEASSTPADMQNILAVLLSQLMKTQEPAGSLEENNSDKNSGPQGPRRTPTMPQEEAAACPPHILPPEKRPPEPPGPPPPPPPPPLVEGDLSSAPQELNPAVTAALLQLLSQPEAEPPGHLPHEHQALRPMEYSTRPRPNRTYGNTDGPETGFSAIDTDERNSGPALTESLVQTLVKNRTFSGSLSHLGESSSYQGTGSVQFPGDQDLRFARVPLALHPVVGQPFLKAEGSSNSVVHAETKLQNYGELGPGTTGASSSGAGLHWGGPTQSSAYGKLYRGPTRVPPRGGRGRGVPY
T2 sequence (O75909 whole entry partner): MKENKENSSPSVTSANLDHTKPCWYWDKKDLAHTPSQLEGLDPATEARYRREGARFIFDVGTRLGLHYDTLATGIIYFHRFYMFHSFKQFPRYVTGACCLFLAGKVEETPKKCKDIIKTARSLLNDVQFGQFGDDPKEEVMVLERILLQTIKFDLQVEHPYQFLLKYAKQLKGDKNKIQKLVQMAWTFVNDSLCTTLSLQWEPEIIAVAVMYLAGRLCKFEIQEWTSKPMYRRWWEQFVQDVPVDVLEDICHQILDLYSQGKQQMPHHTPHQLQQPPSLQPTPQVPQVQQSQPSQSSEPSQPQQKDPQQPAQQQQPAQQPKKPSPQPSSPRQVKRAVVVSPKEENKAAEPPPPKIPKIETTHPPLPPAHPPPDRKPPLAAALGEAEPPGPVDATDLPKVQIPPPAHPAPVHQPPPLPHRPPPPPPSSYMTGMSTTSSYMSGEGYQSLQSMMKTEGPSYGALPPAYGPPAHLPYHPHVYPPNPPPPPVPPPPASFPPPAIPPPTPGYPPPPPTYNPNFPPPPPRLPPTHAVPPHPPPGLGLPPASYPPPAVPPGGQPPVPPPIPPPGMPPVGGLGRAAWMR
T2 sequence (Q16531 2-1140 partner limits assumed): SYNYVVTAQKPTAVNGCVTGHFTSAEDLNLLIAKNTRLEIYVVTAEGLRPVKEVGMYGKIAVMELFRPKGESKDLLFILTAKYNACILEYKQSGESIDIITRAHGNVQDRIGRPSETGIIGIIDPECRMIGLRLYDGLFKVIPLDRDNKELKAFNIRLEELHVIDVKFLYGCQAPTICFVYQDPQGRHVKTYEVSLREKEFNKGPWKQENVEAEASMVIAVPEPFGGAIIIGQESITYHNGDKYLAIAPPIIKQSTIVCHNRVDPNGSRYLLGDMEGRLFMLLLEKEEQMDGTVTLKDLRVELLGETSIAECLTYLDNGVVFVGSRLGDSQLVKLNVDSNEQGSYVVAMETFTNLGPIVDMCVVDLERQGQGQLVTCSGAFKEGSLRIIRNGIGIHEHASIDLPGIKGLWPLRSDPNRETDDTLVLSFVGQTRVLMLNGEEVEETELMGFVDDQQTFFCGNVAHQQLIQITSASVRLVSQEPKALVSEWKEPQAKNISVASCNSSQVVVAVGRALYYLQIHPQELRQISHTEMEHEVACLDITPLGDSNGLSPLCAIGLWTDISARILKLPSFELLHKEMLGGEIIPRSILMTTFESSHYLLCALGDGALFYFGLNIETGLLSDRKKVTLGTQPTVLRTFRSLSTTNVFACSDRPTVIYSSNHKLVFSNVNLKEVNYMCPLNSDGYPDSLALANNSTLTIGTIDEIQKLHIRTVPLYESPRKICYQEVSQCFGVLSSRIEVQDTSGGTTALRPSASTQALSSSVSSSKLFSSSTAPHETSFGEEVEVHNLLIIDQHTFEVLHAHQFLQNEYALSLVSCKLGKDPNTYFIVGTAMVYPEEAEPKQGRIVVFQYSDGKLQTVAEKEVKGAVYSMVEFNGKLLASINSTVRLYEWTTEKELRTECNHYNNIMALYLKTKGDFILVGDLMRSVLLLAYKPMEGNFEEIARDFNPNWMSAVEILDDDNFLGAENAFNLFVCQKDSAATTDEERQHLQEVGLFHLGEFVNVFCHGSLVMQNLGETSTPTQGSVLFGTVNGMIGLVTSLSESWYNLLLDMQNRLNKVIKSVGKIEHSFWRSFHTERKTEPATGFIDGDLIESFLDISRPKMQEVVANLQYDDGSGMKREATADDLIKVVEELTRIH

In the case of `Cc1cccc(Nc2nc(CC(=O)Nc3ncc(C)s3)cs2)n1` [HQ461, 2-(2-((6-methylpyridin-2-yl)amino)thiazol-4-yl)-N-(5-methylthiazol-2-yl)acetamide], the AlphaScreen in experiment [1] (WT + 5 µM THZ531, HQ461 2.22e-6 M) was 1078 and 1062 and 921; in experiment [1] (WT + 5 µM THZ531, HQ461 6.67e-6 M) it was 1168 and 926 and 865; in experiment [1] (WT + 5 µM THZ531, HQ461 2e-5 M), 1307 and 1119 and 970; in experiment [1] (WT + 5 µM THZ531, HQ461 2.47E-07 M) it was 1065 and 1007 and 926; in experiment [1] (WT + 5 µM THZ531, HQ461 2.74E-08 M) it was 1128 and 949 and 821; in experiment [1] (WT + 5 µM THZ531, HQ461 7.41E-07 M), 1120 and 993 and 799. The AlphaScreen is 1054 and 1033 and 906 in experiment [1] (WT + 5 µM THZ531, HQ461 8.23E-08 M); 11213 and 9188 and 8788 in experiment [1] (WT, HQ461 2.22e-6 M); 16665 and 12816 and 13014 in experiment [1] (WT, HQ461 6.67e-6 M); 20710 and 15836 and 15276 in experiment [1] (WT, HQ461 2e-5 M); 4781 and 3382 and 3265 in experiment [1] (WT, HQ461 2.47E-07 M); 2625 and 1724 and 1469 in experiment [1] (WT, HQ461 2.74E-08 M). In addition, the AlphaScreen is 7377 and 5649 and 5718 in experiment [1] (WT, HQ461 7.41E-07 M); 2916 and 2037 and 1777 in experiment [1] (WT, HQ461 8.23E-08 M). The EC50 in experiment [1] (WT, read-out: apparent EC50 of CDK12KD/CCNKΔC/DDB1 complex formation) is 1900 nM. Also, the “recruitment of DDB1 to CDK12/CCNK (coimmunoprecipitation)” value in experiment [2] was “DDB1 was only detected with the CDK12/CCNK complex isolated from lysates treated with HQ461”.

The values are drawn from paper PMC7462607 (eLife, 2020).
